The text below walks through data of patent US8450318B2 (priority 2007, dated 2013).

One may read the CC50 as the concentration at which the toxic effect on the cells reaches its halfway point. Higher therefore signals better tolerance by the cells. As a reminder, the EC50 is the midpoint of the concentration-response curve.

Values after ≈ are worked out from the molar mass of the structure shown. Read-outs that look alike come from different tables or passages of the source. Where only a bound is given, the exact number is not on record here.

For one series, the system named is Feline Corona virus. Description: Activity on feline corona virus in CRFK cells. In kind it is cell-based.
Another series deals with CRFK cells. As to conditions: cytotoxicity, feline corona virus test.
In another series the test system is Influenza A H1N1 subtype. Kind of series: Anti-influenza activity in MDCK cells, Influenza A H1N1. As to conditions: for EC50 Influenza A H1N1 subtype MTS: cell viability, formazan-based MTS assay; for EC50 Influenza A H1N1 subtype visual CPE score: visual scoring of the CPE; for EC50: reference compounds. It counts as cell-based. An excerpt: (§1) MDCK cells (Madin Darby canine kidney cells) have been used for the experiments shown in table 5 using standard procedures known in the art.
(Formazan colour is commonly taken as a measure of viable cells.)

The test system of the next series is Influenza B. Kind of series: Anti-influenza activity in MDCK cells, Influenza B. The settings on record: for EC50 Influenza B MTS: cell viability, formazan-based MTS assay; for EC50 Influenza B visual CPE score: visual scoring of the CPE; for EC50: reference compounds. In kind it is cell-based.
The test system of the next series is Influenza A H3N2 subtype. Kind of series: Anti-influenza activity in MDCK cells, Influenza A H3N2. The settings on record: for EC50 Influenza A H3N2 subtype MTS: cell viability, formazan-based MTS assay; for EC50 Influenza A H3N2 subtype visual CPE score: visual scoring of the CPE; for EC50: reference compounds. It counts as cell-based.
Source text: as §1

Another series relates to HIV-2. Kind of series: Antiretrovirus assay, HIV-2.
The next series relates to CEM cells. Kind of series: Cytostatic/cytotoxic activity, inhibition of CEM cell proliferation. As to conditions: Table 1; for CC50: 50% cytostatic concentration, CEM cell proliferation.
Setting [1] is: Table 1, CEM cells, prevention of syncytium formation by 50%, 4 to 5 days.
Setting [2] is: MTS, read-out: EC50 Influenza A H1N1 subtype MTS.
The mark [3] stands for this setting: visual CPE, read-out: EC50 Influenza A H1N1 subtype visual CPE score.
Where [4] appears, read: MTS, read-out: EC50 Influenza B MTS.
Where [5] appears, read: visual CPE, read-out: EC50 Influenza B visual CPE score.
[6] abbreviates: MTS, read-out: EC50 Influenza A H3N2 subtype MTS.
The mark [7] stands for this setting: visual CPE, read-out: EC50 Influenza A H3N2 subtype visual CPE score.

In the case of `CCOC(=O)CNc1cccc(NCc2c(CC)c(CNc3cccc(C)n3)c(CC)c(CNc3cccc(C)n3)c2CC)n1` [AH29], the “Feline Corona virus EC50” value with Feline Corona virus is greater than 4 µg/mL. Besides, the “Feline Corona virus CC50” value in the series with CRFK cells was 13.3 µg/mL.

Take `CCc1c(CN)c(CC)c(CNc2cc(C)cc(C)n2)c(CC)c1CNc1cc(C)cc(C)n1.Cl` [Co28]: in the series on Influenza A H1N1 subtype, the “EC50 Influenza A H1N1 subtype MTS” value is greater than 0.8 µg/mL and the “EC50 Influenza A H1N1 subtype visual CPE score” value was greater than 0.8 µg/mL. In the series with Influenza B, the “EC50 Influenza B MTS” value is greater than 0.8 µg/mL and the “EC50 Influenza B visual CPE score” value is greater than 0.8 µg/mL. Besides, in the series on Influenza A H3N2 subtype, the “EC50 Influenza A H3N2 subtype MTS” value is greater than 0.8 µg/mL and the “EC50 Influenza A H3N2 subtype visual CPE score” value was greater than 0.8 µg/mL.

On to `Cc1ccc(NCc2c(C)c(CNc3ccc(C)cn3)c(C)c(CNc3ccc(C)cn3)c2C)nc1` [Compound 26], for which the “EC50 HIV-2” value in the series on HIV-2 (Table 1) is greater than 4 µg/mL. This molecule also registered a CC50 in the series on CEM cells of 22.0 ± 8.2 µg/mL (≈ 45.8 µM). Also, the “EC50 HIV-1” value in the series on HIV-1 (setting [1]) was greater than 4 µg/mL.

As for `Cc1cccc(NC(=O)c2cc(C(=O)Nc3cccc(C)n3)cc(C(=O)Nc3cccc(C)n3)c2)n1` [Compound 30], in the series on HIV-2 (Table 1), the “EC50 HIV-2” value was greater than 20 µg/mL. Also, in the series on CEM cells, the “cytotoxicity (in words)” value is listed as “low cytotoxicity” and the CC50 was greater than 100 µg/mL. Moreover, the “EC50 HIV-1” value in the series on HIV-1 (setting [1]) is greater than 20 µg/mL.

Consider `CC(N)C12CC3CC(CC(C3)C1)C2` (stereo not drawn) [Rimantadin, reference compound], for which the EC50 was 9.9 µM in the series with Influenza A H1N1 subtype (setting [2]); 8.9 µM in the series with Influenza A H1N1 subtype (setting [3]); greater than 100 µM in the series with Influenza B (setting [4]); greater than 100 µM in the series with Influenza B (setting [5]); 0.9 µM in the series on Influenza A H3N2 subtype (setting [6]); 2.1 µM in the series with Influenza A H3N2 subtype (setting [7]).

Consider `CCc1c(CNc2cccc(C)n2)c(CC)c(CNc2cccc(NC(=O)Cc3ccccc3)n2)c(CC)c1CNc1cccc(C)n1` [AH30], for which, in the series on Influenza A H1N1 subtype, the “EC50 Influenza A H1N1 subtype MTS” value is greater than 4 µg/mL and the “EC50 Influenza A H1N1 subtype visual CPE score” value was greater than 4 µg/mL. For the same molecule, in the series with Influenza B, the “EC50 Influenza B MTS” value was greater than 4 µg/mL and the “EC50 Influenza B visual CPE score” value was greater than 4 µg/mL. Besides, in the series with Influenza A H3N2 subtype, the “EC50 Influenza A H3N2 subtype MTS” value is greater than 4 µg/mL and the “EC50 Influenza A H3N2 subtype visual CPE score” value is greater than 4 µg/mL.

Turning to `CCc1c(CNc2cccc(C(C)=NO)c2)c(CC)c(CNc2cccc(C(C)=NO)c2)c(CC)c1CNc1cccc(C(C)=NO)c1` [Compound 28], the “EC50 HIV-2” value in the series with HIV-2 (Table 1) was greater than 4 µg/mL. Moreover, in the series on CEM cells, the CC50 turned out to be 10.0 ± 0.98 µg/mL (≈ 15.4 µM). Besides, the “EC50 HIV-1” value in the series with HIV-1 (setting [1]) was greater than 4 µg/mL.

Turning to `CCc1c(CNc2cccc(C(C)=NO)c2)c(CC)c(CNc2cc(C)cc(C)n2)c(CC)c1CNc1cc(C)cc(C)n1` [ABT5], in the series with Influenza A H1N1 subtype, the “EC50 Influenza A H1N1 subtype MTS” value was greater than 4 µg/mL and the “EC50 Influenza A H1N1 subtype visual CPE score” value is greater than 4 µg/mL. In the series on Influenza B, the “EC50 Influenza B MTS” value was greater than 4 µg/mL and the “EC50 Influenza B visual CPE score” value is greater than 4 µg/mL. Besides, in the series with Influenza A H3N2 subtype, the “EC50 Influenza A H3N2 subtype MTS” value is greater than 4 µg/mL and the “EC50 Influenza A H3N2 subtype visual CPE score” value is greater than 4 µg/mL.

As for `CCc1c(CNc2cc(C)cc(C)n2)c(CC)c(CNc2ccc3ccc(C)nc3n2)c(CC)c1CNc1ccc2ccc(C)nc2n1` [Co54], in the series with HIV-2 (Table 1a), the “EC50 HIV-2” value was greater than 2 µg/mL. For the same molecule, in the series with HIV-1 (Table 1a), the “EC50 HIV-1” value was greater than 2 µg/mL.

On to `CCC(CC)O[C@@H]1C=C(C(=O)O)C[C@H](N)[C@H]1NC(C)=O` [Oseltamivir caboxylate, reference compound], for which the EC50 amounted to 0.003 µM in the series on Influenza A H1N1 subtype (setting [2]); 0.004 µM with Influenza A H1N1 subtype (setting [3]); 2.6 µM in the series with Influenza B (setting [4]); 4 µM with Influenza B (setting [5]); 1.6 µM with Influenza A H3N2 subtype (setting [6]); 1.8 µM in the series with Influenza A H3N2 subtype (setting [7]).

For the molecule `NC12CC3CC(CC(C3)C1)C2` [Amantadin, reference compound], the EC50 in the series with Influenza A H1N1 subtype (setting [2]) is 59.3 µM; in the series on Influenza A H1N1 subtype (setting [3]) it was 58.5 µM; in the series with Influenza B (setting [4]) it was greater than 100 µM; in the series on Influenza B (setting [5]), greater than 100 µM; in the series on Influenza A H3N2 subtype (setting [6]) it was 1.6 µM; in the series with Influenza A H3N2 subtype (setting [7]), 4 µM.

With `Cc1ccc(O)c(NC(=O)c2cc(C(=O)Nc3cc(C)ccc3O)cc(C(=O)Nc3cc(C)ccc3O)c2)c1` [Phe-Kresol], in the series with Influenza A H1N1 subtype, the “EC50 Influenza A H1N1 subtype MTS” value is greater than 0.8 µg/mL and the “EC50 Influenza A H1N1 subtype visual CPE score” value is greater than 0.8 µg/mL. Besides, in the series with Influenza B, the “EC50 Influenza B MTS” value is greater than 0.8 µg/mL and the “EC50 Influenza B visual CPE score” value was greater than 0.8 µg/mL. For the same molecule, in the series on Influenza A H3N2 subtype, the “EC50 Influenza A H3N2 subtype MTS” value was greater than 0.8 µg/mL and the “EC50 Influenza A H3N2 subtype visual CPE score” value is greater than 0.8 µg/mL.

Take `CCc1c(CC#N)c(CC)c(CNc2cc(C)cc(C)n2)c(CC)c1CNc1cc(C)cc(C)n1` [Co19]: in the series on Feline Corona virus, the “Feline Corona virus EC50” value was greater than 4 µg/mL. Also, the “EC50 HIV-2” value with HIV-2 (Table 1a) is greater than 2 µg/mL. The “Feline Corona virus CC50” value in the series on CRFK cells was 10.8 µg/mL. Also, the “EC50 HIV-1” value with HIV-1 (Table 1a) was greater than 2 µg/mL.

As for `CCc1c(CN)c(CC)c(CNc2cc(C)cc(C)n2)c(CC)c1CNc1cc(C)cc(C)n1` [Compound 29], the “EC50 HIV-2” value in the series on HIV-2 (Table 1) is greater than 0.8 µg/mL. Moreover, the CC50 in the series on CEM cells stood at 1.69 ± 0.02 µg/mL (≈ 3.68 µM). Further, the “EC50 HIV-1” value in the series on HIV-1 (setting [1]) is greater than 0.16 µg/mL. In the series on Influenza A H1N1 subtype, the “EC50 Influenza A H1N1 subtype MTS” value was greater than 0.8 µg/mL and the “EC50 Influenza A H1N1 subtype visual CPE score” value was greater than 0.8 µg/mL. Further, in the series with Influenza B, the “EC50 Influenza B MTS” value was greater than 0.8 µg/mL and the “EC50 Influenza B visual CPE score” value was greater than 0.8 µg/mL. Besides, in the series on Influenza A H3N2 subtype, the “EC50 Influenza A H3N2 subtype MTS” value was greater than 0.8 µg/mL and the “EC50 Influenza A H3N2 subtype visual CPE score” value is greater than 0.8 µg/mL.

Take `Cc1ccc2ccc(NC(=O)c3cccc(C(=O)Nc4ccc5ccc(C)nc5n4)c3)nc2n1` [Sc74]: in the series with Feline Corona virus, the “Feline Corona virus EC50” value amounted to 29.0 ± 4.8 µg/mL. Further, the “Feline Corona virus CC50” value in the series on CRFK cells was greater than 100 µg/mL. Also, in the series with Influenza A H1N1 subtype, the “EC50 Influenza A H1N1 subtype MTS” value was 9.6 µg/mL (≈ 21.4 µM) and the “EC50 Influenza A H1N1 subtype visual CPE score” value turned out to be 15.1 ± 7.0 µg/mL (≈ 33.7 µM). In the series on Influenza B, the “EC50 Influenza B MTS” value was 9.9 µg/mL (≈ 22.1 µM) and the “EC50 Influenza B visual CPE score” value came to 10.9 ± 1.1 µg/mL (≈ 24.3 µM). In addition, in the series with Influenza A H3N2 subtype, the “EC50 Influenza A H3N2 subtype MTS” value is 12.5 µg/mL (≈ 27.9 µM) and the “EC50 Influenza A H3N2 subtype visual CPE score” value is 14.5 ± 7.8 µg/mL (≈ 32.3 µM).

For the molecule `CCc1c(CNc2cccc(CO)c2)c(CC)c(CNc2cc(C)cc(C)n2)c(CC)c1CNc1cc(C)cc(C)n1` [ABT6], the “EC50 HIV-2” value in the series with HIV-2 (Table 1a) is greater than 2 µg/mL. Moreover, the “EC50 HIV-1” value with HIV-1 (Table 1a) was greater than 2 µg/mL.

Turning to `CC(=NO)c1cccc(NCc2c(C)c(CNc3cccc(C(C)=NO)c3)c(C)c(CNc3cccc(C(C)=NO)c3)c2C)c1` [Compound 27], the “EC50 HIV-2” value with HIV-2 (Table 1) was greater than 4 µg/mL. In the series on CEM cells, this molecule yielded a CC50 of 20.4 ± 11.4 µg/mL (≈ 33.6 µM). In the series on HIV-1 (setting [1]), the “EC50 HIV-1” value is greater than 4 µg/mL.

Regarding `CCc1c(CNc2cc(C)cc(C)n2)c(CC)c(CNc2ccc3ccc(C)nc3n2)c(CC)c1CNc1cc(C)cc(C)n1` [Co50], in the series with HIV-2 (Table 1a), the “EC50 HIV-2” value was greater than 2 µg/mL. For the same molecule, the “EC50 HIV-1” value with HIV-1 (Table 1a) was greater than 2 µg/mL.

Consider `Cc1cc(C)c2ccc(NC(=O)c3cc(C(=O)Nc4ccc5c(C)cc(C)nc5n4)cc(C(=O)Nc4ccc5c(C)cc(C)nc5n4)c3)nc2n1` [Sc75], for which, in the series with Influenza A H1N1 subtype, the “EC50 Influenza A H1N1 subtype MTS” value is greater than 4 µg/mL and the “EC50 Influenza A H1N1 subtype visual CPE score” value was greater than 4 µg/mL. In addition, in the series on Influenza B, the “EC50 Influenza B MTS” value is greater than 4 µg/mL and the “EC50 Influenza B visual CPE score” value is greater than 4 µg/mL. Besides, in the series with Influenza A H3N2 subtype, the “EC50 Influenza A H3N2 subtype MTS” value was greater than 4 µg/mL and the “EC50 Influenza A H3N2 subtype visual CPE score” value was greater than 4 µg/mL.
